{"source": "patent US7462599B2", "about": "“Use of effectors of glutaminyl and glutamate cyclases” (Probiodrug AG, priority 2003, dated 2008)", "key": {"QC [1]": {"biological_target": "T1, QC (Homo sapiens, UniProt Q16769)", "T1 sequence (Q16769 29-361)": "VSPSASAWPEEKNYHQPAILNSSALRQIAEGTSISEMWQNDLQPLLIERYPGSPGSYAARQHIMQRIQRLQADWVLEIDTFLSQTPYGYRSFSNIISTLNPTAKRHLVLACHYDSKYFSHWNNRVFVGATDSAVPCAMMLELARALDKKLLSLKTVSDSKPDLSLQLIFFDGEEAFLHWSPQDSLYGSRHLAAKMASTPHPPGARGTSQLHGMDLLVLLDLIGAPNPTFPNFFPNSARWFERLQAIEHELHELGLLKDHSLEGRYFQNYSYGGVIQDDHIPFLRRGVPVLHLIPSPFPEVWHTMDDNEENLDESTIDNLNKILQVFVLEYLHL", "assay": "Enzyme inactivation/reactivation of human QC", "assay_type": "biochemical", "set-up": "The cDNA of the mature QC starting with codon 38 was fused in frame with the plasmid encoded 6× histidine tag; 6x histidine tag; made in house; host or cells: Pichia pastoris X33 (pPICZαB); also E. coli M15 (pQE-31)"}, "[2]": {"test_system": "Glutaminyl cyclase present in the homogenate of porcine pituitary", "assay": "Cyclization of Gln3-Aβ(3-11)a by QC in pituitary homogenate, MALDI-TOF", "assay_type": "biochemical", "experimental": "(§1) Matrix-assisted laser desorption/ionization mass spectrometry was carried out using the Hewlett-Packard G2025 LD-TOF System with a linear time of flight analyzer. […] Samples (5 μl) were mixed with equal volumes of the matrix solution. For matrix solution we used DHAP/DAHC, prepared by solving 30 mg 2′,6′-dihydroxyacetophenone (Aldrich) and 44 mg diammonium hydrogen citrate (Fluka) in 1 ml acetonitrile/0.1% TFA in water (1/1, v/v). A small volume (≈1 μl) of the matrix-analyte-mixture was transferred to a probe tip and immediately evaporated in a vacuum chamber (Hewlett-Packard G2024A sample prep accessory) to ensure rapid and homogeneous sample crystallization."}, "mammalian QC": {"test_system": "mammalian QC", "conditions": "Busby et al. 1987; cited from earlier work"}, "DP IV and QC": {"test_system": "DP IV and QC", "assay": "Consecutive catalysis of DP IV and QC in crude pituitary homogenate with added DPIV, MALDI-TOF", "assay_type": "biochemical, porcine", "conditions": "inhibitor added", "experimental": "as §1"}, "DP IV (porcine kidney)": {"biological_target": "T2, DP IV (porcine kidney) (Sus scrofa, UniProt P22411)", "T2 construct": "purified DP IV (porcine kidney); from tissue; host or cells: porcine kidney", "T2 sequence (P22411 whole entry)": "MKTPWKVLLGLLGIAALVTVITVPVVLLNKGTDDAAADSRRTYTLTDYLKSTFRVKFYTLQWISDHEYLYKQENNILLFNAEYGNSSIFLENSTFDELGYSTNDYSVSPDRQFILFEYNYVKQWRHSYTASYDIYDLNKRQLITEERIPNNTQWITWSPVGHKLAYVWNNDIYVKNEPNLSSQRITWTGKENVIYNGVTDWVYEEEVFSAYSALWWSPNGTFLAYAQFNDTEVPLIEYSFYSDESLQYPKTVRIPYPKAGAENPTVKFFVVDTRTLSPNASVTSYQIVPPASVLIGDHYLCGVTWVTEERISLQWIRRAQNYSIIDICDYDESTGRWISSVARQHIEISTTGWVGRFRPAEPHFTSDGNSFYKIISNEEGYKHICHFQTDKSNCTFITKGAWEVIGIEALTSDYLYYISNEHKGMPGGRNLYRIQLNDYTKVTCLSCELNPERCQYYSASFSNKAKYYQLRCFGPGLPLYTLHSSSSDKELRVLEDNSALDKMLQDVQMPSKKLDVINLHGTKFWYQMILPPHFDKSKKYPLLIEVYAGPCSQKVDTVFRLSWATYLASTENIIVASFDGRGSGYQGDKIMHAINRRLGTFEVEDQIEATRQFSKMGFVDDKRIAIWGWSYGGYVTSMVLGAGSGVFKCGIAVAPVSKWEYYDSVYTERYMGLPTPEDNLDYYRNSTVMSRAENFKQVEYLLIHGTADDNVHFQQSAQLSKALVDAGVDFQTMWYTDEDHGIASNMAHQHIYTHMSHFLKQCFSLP", "assay": "DP IV cleavage of Gln3-Aβ(1-11)a, MALDI-TOF", "assay_type": "biochemical", "experimental": "as §1"}, "QC [3]": {"biological_target": "T1, QC", "assay": "Long-term Glu1-cyclization of Aβ-derived peptides by recombinant human QC, MALDI-TOF", "assay_type": "biochemical", "set-up": "The cDNA of the mature QC starting with codon 38 was fused in frame with the plasmid encoded 6× histidine tag; 6x histidine tag; made in house; host or cells: Pichia pastoris X33 (pPICZαB); also E. coli M15 (pQE-31)", "conditions": "5 mM benzimidazole", "excerpt": "At different times, samples were removed from the assay tube, peptides extracted using ZipTips (Millipore) according to the manufacturer's recommendations, mixed with matrix solution (1:1 v/v) and subsequently the mass spectra recorded."}, "QC [4]": {"biological_target": "T1, QC", "assay": "Fluorometric QC assay with pyroglutamyl aminopeptidase as auxiliary enzyme, human QC", "assay_type": "biochemical", "set-up": "The cDNA of the mature QC starting with codon 38 was fused in frame with the plasmid encoded 6× histidine tag; 6x histidine tag; made in house; host or cells: Pichia pastoris X33 (pPICZαB); also E. coli M15 (pQE-31)", "conditions": "H-Gln-AMC as substrate", "excerpt": "Excitation/emission wavelengths were 320/410 nm.\nH-Glu(OMe)-βNA and H-Glu-βNA."}, "QC [5]": {"biological_target": "T1, QC", "assay": "MALDI-TOF qualitative substrate conversion, human QC", "assay_type": "biochemical", "set-up": "The cDNA of the mature QC starting with codon 38 was fused in frame with the plasmid encoded 6× histidine tag; 6x histidine tag; made in house; host or cells: Pichia pastoris X33 (pPICZαB); also E. coli M15 (pQE-31)", "experimental": "as §1\nIn order to further investigate the specificity and selectivity of the QCs, peptides were synthesized comprising either a modified N-terminal glutaminyl residue or a modified amino acid in the second position. […] Due to the cyclization of the glutaminyl residue or its analog, respectively, a mass difference of the substrate and the product of catalysis is detected. In cases of ammonia liberation of one mole per mole of substrate, the conversion was also analyzed quantitatively using the spectrophotometric assay."}, "[6]": {"assay": "Solubility in aqueous solution"}, "QC [7]": {"biological_target": "T1, QC", "assay": "LC/MS analysis of QC-catalyzed pyroglutamate formation", "assay_type": "biochemical"}}, "note": "Entries after “also recorded” stand apart in the source; their conditions may differ. Like-named read-outs stand apart in the source and are kept apart here. Ends that are not written are not given here."}
{"molecule": "c1cnc2c(c1)ccc1cccnc12", "note": "[1,10-phenanthroline]", "values": [{"measurement": "inhibition of human QC catalyzed substrate cyclization by chelators", "setting": "QC [1]", "result": "inhibited"}, {"measurement": "inactivation of human QC after extensive dialysis", "setting": "QC [1]; 5 mM inactivating agent", "result": "almost completely inactivated"}, {"measurement": "inhibition of formation of [pGlu3]Aβ(3-11)a from Gln3-Aβ(3-11)a", "setting": "[2]", "result": "inhibited; also recorded: inhibition of the formation"}, {"measurement": "inhibition of mammalian QC", "setting": "mammalian QC", "result": "Inhibition of a mammalian QC was only detected"}, {"measurement": "[pGlu3]Aβ(3-11)a formation from Gln3-Aβ(1-11)a in presence of DP IV and QC", "setting": "DP IV and QC", "result": "inhibition"}]}
{"molecule": "CC(C)[C@H](N)C(=O)N1CCCC1", "note": "[Val-Pyrr, Val-Pyrrolidide]", "values": [{"measurement": "prevention of DP IV cleavage of Gln3-Aβ(1-11)a", "setting": "DP IV (porcine kidney)", "result": "completely prevented"}, {"measurement": "prevention of DP IV cleavage of Gln3-Aβ(1-11)a", "setting": "DP IV (porcine kidney); listed as Val-Pyrrolidide", "result": "prevention of the cleavage"}, {"measurement": "[pGlu3]Aβ(3-11)a formation from Gln3-Aβ(1-11)a in presence of DP IV and QC", "setting": "DP IV and QC", "result": "reduction"}]}
{"molecule": "c1ccc2[nH]cnc2c1", "note": "[benzimidazole]", "values": [{"measurement": "suppression of [pGlu3]Aβ(3-11)a / [pGlu3]Aβ(3-21)a formation", "setting": "QC [3]", "result": "suppressed"}, {"measurement": "suppression of [pGlu3]Aβ(3-11)a / [pGlu3]Aβ(3-21)a formation", "setting": "QC [3]; listed as Benzimidazole", "result": "suppressing the formation"}]}
{"molecule": "H-Gln(NMe)-Phe-Lys-Ala-Glu-NH2 (H-QFKAE-NH2; not fully specified (residue 1); printed as H-Gln(NMe)-Phe-Lys-Ala-Glu-NH2)", "values": [{"measurement": "inhibition of human QC by the peptide", "setting": "QC [4]", "result": "not detected"}, {"measurement": "conversion by human QC", "setting": "QC [5]", "result": "not recognized by human QC; also recorded: No substrate conversion was observed"}]}
{"molecule": "H-Gln-Lys(Gln)-Arg-Leu-Ala-NH2 (H-QK(Gln)RLA-NH2; SMILES CC(C)C[C@H](NC(=O)[C@H](CCCNC(=N)N)NC(=O)[C@H](CCCCNC(=O)[C@@H](N)CCC(N)=O)NC(=O)[C@@H](N)CCC(N)=O)C(=O)N[C@@H](C)C(N)=O) [H-Gin-Lys(Gln)-Arg-Leu-Ala-NH2]", "values": [{"measurement": "conversion by human QC", "setting": "QC [5]", "result": "converted"}]}
{"molecule": "QFRHDSGYE-NH2 [[Gln^3]Aβ3-11a]", "values": [{"measurement": "solubility in aqueous solution", "setting": "[6]", "result": "better solubility"}]}
{"molecule": "[Gln^5]-substance P(5-11): substance P fragment 5-11 with N-terminal Gln^5 after cleavage of residues 1-4 (QQFFGLM; ends and bridges not checked)", "values": [{"measurement": "formation of N-terminal pyroglutamate catalyzed by QC", "setting": "QC [7]", "result": "transformed by QC"}]}
